# Source: patent publication US20230339878A1, “SLC26A3 INHIBITORS AND USE THEREOF” (THE REGENTS OF THE UNIVERSITY OF CALIFORNIA, priority 2018, published 2023)
# “Also recorded” adds a separate entry of the source.
# Key:
# slc26a3 = target: T1, slc26a3 (Mus musculus, UniProt Q9WVC8); test: slc26a3-mediated Cl-/HCO3- exchange, BCECF cytoplasmic pH in slc26a3-expressing FRT cells; format: cell-based, murine; details: increase in cytoplasmic pH, read-out: IC50 for inhibition of slc26a3-mediated Cl-/HCO3- exchange
# T1 construct: host or cells: Fischer rat thyroid (FRT) cells expressing YFP, clonal line FRT-YFP-slc26a3
# T1 sequence (Q9WVC8 1-757): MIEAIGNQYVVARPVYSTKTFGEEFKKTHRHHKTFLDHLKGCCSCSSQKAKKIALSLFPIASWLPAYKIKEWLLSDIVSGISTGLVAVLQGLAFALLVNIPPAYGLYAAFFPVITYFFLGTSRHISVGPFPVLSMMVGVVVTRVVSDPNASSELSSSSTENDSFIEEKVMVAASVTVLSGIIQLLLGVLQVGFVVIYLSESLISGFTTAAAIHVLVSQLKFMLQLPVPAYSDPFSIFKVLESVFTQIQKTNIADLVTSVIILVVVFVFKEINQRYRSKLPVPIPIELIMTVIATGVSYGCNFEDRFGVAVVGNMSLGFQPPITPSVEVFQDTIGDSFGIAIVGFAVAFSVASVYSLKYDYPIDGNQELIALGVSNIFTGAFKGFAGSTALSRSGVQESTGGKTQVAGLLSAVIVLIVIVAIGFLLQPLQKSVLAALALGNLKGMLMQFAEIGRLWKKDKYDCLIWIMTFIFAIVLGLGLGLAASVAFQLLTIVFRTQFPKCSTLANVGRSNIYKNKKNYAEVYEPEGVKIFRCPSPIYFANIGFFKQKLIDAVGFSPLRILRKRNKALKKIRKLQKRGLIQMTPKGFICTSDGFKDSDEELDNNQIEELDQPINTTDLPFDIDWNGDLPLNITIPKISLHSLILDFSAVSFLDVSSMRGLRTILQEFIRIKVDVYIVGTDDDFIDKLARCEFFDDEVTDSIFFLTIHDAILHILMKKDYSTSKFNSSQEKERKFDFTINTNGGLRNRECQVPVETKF
# Procedure: Concentration-dependence measurements for inhibition of slc26a3-mediated exchange of Cl^- and HCO3^-, the physiologically relevant activity of slc26a3, was measured using slc26a3-expressing FRT cells labeled with BCECF as a cytoplasmic pH sensor. Labeled cells were initially incubated in a Cl^--containing HCO3^- buffered solution, and HCO3^- influx / Cl^- efflux with cytoplasmic alkalinization was produced by addition of a gluconate-containing HCO3^- buffered solution. […] Concentration-dependence measurements for inhibition of slc26a3-mediated Cl^-/SCN^- exchange gave an IC50 of ~0.3 µM (FIG. 4B).
# YFP-based assays of CFTR, pendrin and TMEM16A were as described. HEK cells transfected to express YFP and SLC26A3, slc26a6 or slc26a9 were functionally assayed using a Cl^-/I^- exchange protocol. Assays of Cl^-/HCO3^- exchange were done using BCECF as an intracellular pH indicator as described for pendrin. Short-circuit current (ISC) measurements in well-differentiated HBE cell cultures were done using techniques known in the art.
# [1] = test system: mouse mid-jejunal closed loops; test: Closed mid-jejunal loop fluid absorption in mice; format: in vivo; details: 10 µM intraluminal, 30 min
# Procedure: Female CD1 mice (age 8-10 weeks) were given free access to Pedialyte (per liter: Na^+ 45 mEq, Cl^- 35 mEq, K^+ 20 mEq, dextrose 25 g; Abbott, Abbot Park, IL) but not solid food for 48 h before experiments. Mice were treated with 500 µL mineral oil once a day rectally (last dose 12 h before surgeries) during this period to evacuate the colon. Closed intestinal loops were isolated as described. Mice were anesthetized with isoflurane and body temperature was maintained during surgery at 36-38° C. using a heating pad. A small abdominal incision was made to expose the distal colon, and one closed distal colonic loop (length 1.5-2 cm) was isolated with sutures in each mouse. Loops were injected with 100 µL phosphate-buffered saline (PBS, pH: 7.4, in mM: 137 NaCl, 2.7 KCl, 8 Na2HPO4, 1.8 KH2PO4, 1 CaCl2, 0.5 MgCl2) without and with 10 µM Compound A1 and/or 10 µM tenapanor (MedChemExpress, Monmouth Junction, NJ). The abdominal incision was closed with sutures, and mice were allowed to recover from anesthesia. Colonic loops were removed at 0 and 60 min (in separate mice) and loop length and weight were measured to quantify fluid absorption. Luminal fluid was emptied with a syringe and pH was measured immediately using AB15 pH Meter (Thermo Fisher Scientific, South San Francisco, CA). In separate studies, mid-jejunal loops (length 2-3 cm, 3-4 loops per mouse) were isolated as described above, injected with 100 µL PBS without or with 10 µM Compound A1 and/or 10 µM tenapanor, and excised at 0 and 30 min to measure loop length and weight.
# [2] = test system: acute hyperoxaluria in mice; test: Acute hyperoxaluria induced by oral sodium oxalate; format: in vivo
# Procedure: The efficacy of Compound A1 (DRAinh-A250) and DRAinh-A270 were tested in models of acute hyperoxaluria and oxalate nephropathy in mice. To induce acute hyperoxaluria, mice were given sodium oxalate ([…]) with or without 5 mg/kg Compound A1 by oral gavage at zero time and urine was collected for the next 4 hours in metabolic cages. A group of mice were used as controls and treated with vehicle only (no sodium oxalate or DRA inhibitor) and their urine was collected for 4 hours in metabolic cages as well. Using the 4 hour urine samples, urine oxalate/creatinine ratio was determined to quantify urinary oxalate excretion.
# Similar experiments were performed for DRAinh-A270 in the acute hyperoxaluria model. For these experiments mice were first placed in metabolic cages to collect urine for 4 hours without any treatment. After this initial collection, the mice were treated with DRAinh-A270 (10 mg/kg) or vehicle intraperitoneally, and given sodium oxalate ([…], in water) by oral gavage at zero time. Urine was collected for the next 4 hours in metabolic cages.
# [3] = test system: oxalate nephropathy model in mice; test: Oxalate nephropathy model induced by high oxalate diet; format: in vivo
# Procedure: To induce oxalate nephropathy, mice were fed with high oxalate (0.67%) and low calcium (<0.01%) diet as described (Am J Physiol Renal Physiol 310: F785-F795, 2016). […] Mice were started high oxalate diet at Day 0 and treated with Compound A1 (5 mg/kg) or vehicle by oral gavage twice daily starting at Day 0. At Day 14, urine was collected for 24 hours in metabolic cages and centrifuged to examine urine sediment, then mice were euthanized and kidneys were used for histological analysis.
# The kidneys harvested at Day 14 were examined for kidney damage using H & E staining, and for crystal deposition using polarized light microscopy.
# Similar experiments in oxalate nephropathy model were performed using DRAinh-A270. For these experiments mice had 3-hour urine collections at Day 0, 7 and 14. High oxalate diet was started on Day 0 after initial urine collection and mice were given DRAinh-A270 or vehicle intraperitoneally twice daily for 14 days.
# [4] = 5 mg/kg oral twice daily, Day 14
compound,measurement,setting,value
Cc1c(CC(=O)O)c(=O)oc2c(C)c(OCc3cccc(Br)c3)ccc12 [Compound A1],IC50,slc26a3,~100 nM
same,"loop weight/length ratio (fluid absorption), mid-jejunal loops",[1],did not produce significant changes; also recorded: not in jejunal loops
same,"luminal fluid pH, mid-jejunal loops",[1],did not alter acidification
same,4 hour urine oxalate/creatinine ratio (hyperoxaluria),[2]; 5 mg/kg oral gavage with sodium oxalate 1 µmol/kg,largely prevented hyperoxaluria
same,insoluble urine sediment,[3]; [4],greatly reduced; also recorded: greatly reduces urine sediment
same,"kidney damage, H & E staining",[3]; [4],prevention of kidney damage; also recorded: prevents renal damage
same,"renal crystal deposition, polarized light microscopy",[3]; [4],prevention of crystal deposition; also recorded: prevents renal crystal deposition
Cc1c(CC(=O)O)c(=O)oc2c(C)c(OCc3cccc(I)c3)ccc12 [DRAinh-A270],4-hour urine oxalate/creatinine ratio (hyperoxaluria),"[2]; 10 mg/kg intraperitoneally, sodium oxalate 2.5 µmol/kg oral",largely prevented hyperoxaluria
same,development of renal failure,[3]; intraperitoneally twice daily for 14 days,"prevents development of renal failure; also recorded: prevents weight loss, hyperoxaluria and renal failure"
same,body weight change compared to Day 0,"[3]; intraperitoneally twice daily for 14 days, Day 7 and Day 14","maintained their weight better; also recorded: prevents weight loss, hyperoxaluria and renal failure"
same,3-hour urine oxalate / creatinine ratio,"[3]; intraperitoneally twice daily, Day 7 vs Day 0","largely prevented development of hyperoxaluria; also recorded: prevents weight loss, hyperoxaluria and renal failure"
same,serum creatinine,"[3]; intraperitoneally twice daily, Day 14",normal serum creatinine
